Experimental data reported in patent US10280205B2, “Method for treating cancer with an activated T lymphocyte that selectively recognizes a cancer cell consisting of specific peptide” (immatics biotechnologies GmbH, priority 2015, dated 2019).

Tests used:
CD8+ T cells = assay: In vitro T-cell priming assay with aAPCs loaded with peptide/MHC complexes and anti-CD28, multimer staining readout (in vitro immunogenicity); format: cell-based, human; details: for donors (positive donors, in vitro immunogenicity) / wells (positive wells, in vitro immunogenicity): HLA class I peptides; for donors (positive donors, in vitro immunogenicity): percentage of positive donors among evaluable; for wells (positive wells, in vitro immunogenicity): percentage of positive wells; for Wells positive [%]: HLA-A*02 restricted peptides
Excerpt: In order to obtain information regarding the immunogenicity of the TUMAPs of the present invention, the inventors performed investigations using an in vitro T-cell priming assay based on repeated stimulations of CD8+ T cells with artificial antigen presenting cells (aAPCs) loaded with peptide/MHC complexes and anti-CD28 antibody.
In order to perform in vitro stimulations by artificial antigen presenting cells loaded with peptide-MHC complex (pMHC) and anti-CD28 antibody, the inventors first isolated CD8+ T cells from fresh HLA-A*02 leukapheresis products via positive selection using CD8 microbeads (Miltenyi Biotec, Bergisch-Gladbach, Germany) of healthy donors obtained from the University clinics Mannheim, Germany, after informed consent.
PBMCs and isolated CD8+ lymphocytes were incubated in T-cell medium (TCM) until use consisting of RPMI-Glutamax (Invitrogen, Karlsruhe, Germany) supplemented with 10% heat inactivated human AB serum (PAN-Biotech, Aidenbach, Germany), 100 U/ml Penicillin/100 μg/ml Streptomycin (Cambrex, Cologne, Germany), 1 mM sodium pyruvate (CC Pro, Oberdorla, Germany), 20 μg/ml Gentamycin (Cambrex). 2.5 ng/ml IL-7 (PromoCell, Heidelberg, Germany) and 10 U/ml IL-2 (Novartis Pharma, Nurnberg, Germany) were also added to the TCM at this step.
Generation of pMHC/anti-CD28 coated beads, T-cell stimulations and readout was performed in a highly defined in vitro system using four different pMHC molecules per stimulation condition and 8 different pMHC molecules per readout condition.
The purified co-stimulatory mouse IgG2a anti human CD28 Ab 9.3 (Jung et al., 1987) was chemically biotinylated using Sulfo-N-hydroxysuccinimidobiotin as recommended by the manufacturer (Perbio, Bonn, Germany). Beads used were 5.6 μm diameter streptavidin coated polystyrene particles (Bangs Laboratories, Illinois, USA).
pMHC used for positive and negative control stimulations were A*0201/MLA-001 (peptide […] (SEQ ID NO. 664) from modified Melan-A/MART-1) and A*0201/DDX5-001 ([…] from DDX5, SEQ ID NO. 665), respectively.
800.000 beads/200 μl were coated in 96-well plates in the presence of 4×12.5 ng different biotin-pMHC, washed and 600 ng biotin anti-CD28 were added subsequently in a volume of 200 μl. Stimulations were initiated in 96-well plates by co-incubating […] CD8+ T cells with 2×10^5 washed coated beads in 200 μl TCM supplemented with 5 ng/ml IL-12 (PromoCell) for 3 days at 37° C. Half of the medium was then exchanged by fresh TCM supplemented with 80 U/ml IL-2 and incubating was continued for 4 days at 37° C. This stimulation cycle was performed for a total of three times. For the pMHC multimer readout using 8 different pMHC molecules per condition, a two-dimensional combinatorial coding approach was used as previously described (Andersen et al., 2012) with minor modifications encompassing coupling to 5 different fluorochromes. Finally, multimeric analyses were performed by staining the cells with Live/dead near IR dye (Invitrogen, Karlsruhe, Germany), CD8-FITC antibody clone SK1 (BD, Heidelberg, Germany) and fluorescent pMHC multimers. For analysis, a BD LSRII SORP cytometer equipped with appropriate lasers and filters was used. Peptide specific cells were calculated as percentage of total CD8+ cells. Evaluation of multimeric analysis was done using the FlowJo software (Tree Star, Oreg., USA). In vitro priming of specific multimer+ CD8+ lymphocytes was detected by comparing to negative control stimulations.
Exemplary flow cytometry results after TUMAP-specific multimer staining for two peptides of the invention are shown in FIG. 3 together with corresponding negative controls.

HLA-A*02:01 = HLA-A*02:01 (Homo sapiens, UniProt P04439, D140Y/D185E/D98H/E176V/E277Q/G131W/G231S/I119V/I121R/I166T/I218V/L300P/L318F/N151K/N90K/P208A/P217A/Q86G/Q94H/R138H/R169H/T345S); assay: MHC binding assay: UV-ligand exchange with beta2m ELISA (exchange yield); details: binding to HLA-A*02:01, β2m ELISA
Summary of the method: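 Exchange yield reflects how much β2m remains bound, measured by ELISA: streptavidin capture of 100-fold diluted monomers, HRP anti-β2m at 37° C. for 1 h, TMB read at 450 nm. Monomers come from UV cleavage of a conditional HLA-A*02:01 ligand in the presence of the candidate peptide.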

Peptide exchange (MHC class I binding score, peptide exchange yield) (HLA-A*02:01) | Substance | donors (positive donors, in vitro immunogenicity) (CD8+ T cells) | wells (positive wells, in vitro immunogenicity) (CD8+ T cells) | Wells positive [%] (CD8+ T cells)
 | 652 (TLWYRAPEV; listed as Homo sapiens) [compound 652] | ++++ (>=70% = ++++) | +++ (50%-69% = +++) | 
“+++” (≥50 = +++) | 384 (ILFANPNIFV; listed as Homo sapiens) [compound 384] |  |  | “+” (<20% = +)
“++++” (≥75% = ++++) | 3 (SLASKLTTL; listed as Homo sapiens) [compound 3] |  |  | “+” (<20% = +)
“++++” (≥75% = ++++) | 460 (AMLEKNYKL; listed as Homo sapiens) [compound 460] |  |  | “+” (<20% = +)
 | 663 (KIQEMQHFL; listed as Homo sapiens) [compound 663] | +++ (50%-69% = +++) | + (<20% = +) | 
“+++” (≥50 = +++) | 166 (YLNHLEPPV; listed as Homo sapiens) [compound 166] |  |  | “++++” (>=70% = ++++)
“+++” (≥50 = +++) | 150 (RLWEEGEELEL; listed as Homo sapiens) [compound 150] |  |  | “+” (<20% = +)
“+++” (≥50 = +++) | 79 (SLFIGEKAVLL; listed as Homo sapiens) [compound 79] |  |  | “+” (<20% = +)
“++” (≥20% = ++) | 603 (FLIEPEHVNTV; listed as Homo sapiens) [compound 603] |  |  | “+” (<20% = +)
“+++” (≥50 = +++) | 38 (FLLEDDIHVS; listed as Homo sapiens) [compound 38] |  |  | “+” (<20% = +)
 | 659 (ILFPDIIARA; listed as Homo sapiens) [compound 659] | +++ (50%-69% = +++) | + (<20% = +) | 
“+++” (≥50 = +++) | 247 (VLLPNDLLEKV; listed as Homo sapiens) [compound 247] |  |  | “+” (<20% = +)
“++” (≥20% = ++) | 319 (SLEPQIQPV; listed as Homo sapiens) [compound 319] |  |  | “+” (<20% = +)
“+++” (≥50 = +++) | 283 (ALYIGDGYVIHLA; listed as Homo sapiens) [compound 283] | +++ (50%-69% = +++) | + (<20% = +) | 
“++++” (≥75% = ++++) | 8 (FTLGNVVGMYL; listed as Homo sapiens) [compound 8] |  |  | “+” (<20% = +)
“+++” (≥50 = +++) | 118 (KLIDNNINV; listed as Homo sapiens) [compound 118] |  |  | “+” (<20% = +)

Peptide exchange (MHC class I binding score, peptide exchange yield) (HLA-A*02:01) | Substance | donors (positive donors, in vitro immunogenicity) (CD8+ T cells) | wells (positive wells, in vitro immunogenicity) (CD8+ T cells) | Wells positive [%] (CD8+ T cells)
“++++” (≥75% = ++++) | 143 (LLLDITPEI; listed as Homo sapiens) [compound 143] |  |  | “+” (<20% = +)
“+++” (≥50 = +++) | 48 (ALAELYEDEV; listed as Homo sapiens) [compound 48] |  |  | “+” (<20% = +)
“++” (≥20% = ++) | 141 (YLDFSNNRL; listed as Homo sapiens) [compound 141] |  |  | “+” (<20% = +)
“++++” (≥75% = ++++) | 56 (KLYEGIPVLL; listed as Homo sapiens) [compound 56] |  |  | “+” (<20% = +)
“++” (≥20% = ++) | 499 (KIFDIDEAEEGV; listed as Homo sapiens) [compound 499] |  |  | “+” (<20% = +)
“++” (≥20% = ++) | 511 (FLDPYCSASV; listed as Homo sapiens) [compound 511] |  |  | “+” (<20% = +)
“+++” (≥50 = +++) | 489 (KMWEELPEVV; listed as Homo sapiens) [compound 489] |  |  | “+” (<20% = +)
“+++” (≥50 = +++) | 11 (KIFEMLEGV; listed as Homo sapiens) [compound 11] |  |  | “+” (<20% = +)
“+++” (≥50 = +++) | 443 (GLWEIENNPTV; listed as Homo sapiens) [compound 443] |  |  | “+” (<20% = +)
 | 662 (KIQEILTQV; listed as Homo sapiens) [compound 662] | +++ (50%-69% = +++) | + (<20% = +) | 
“+++” (≥50 = +++) | 199 (ALQDVPLSSV; listed as Homo sapiens) [compound 199] |  |  | “+” (<20% = +)
“++++” (≥75% = ++++) | 60 (SLTIDGIYYV; listed as Homo sapiens) [compound 60] |  |  | “++++” (>=70% = ++++)
“+++” (≥50 = +++) | 113 (GLLPTPLFGV; listed as Homo sapiens) [compound 113] |  |  | “+” (<20% = +)
“++” (≥20% = ++) | 36 (YVLEDLEVTV; listed as Homo sapiens) [compound 36] |  |  | “+” (<20% = +)
 | 648 (LLWGNAIFL; listed as Homo sapiens) [compound 648] | +++ (50%-69% = +++) | ++ (20%-49% = ++) | 
“+++” (≥50 = +++) | 2 (SLLEADPFL; listed as Homo sapiens) [compound 2] |  |  | “+” (<20% = +)
